Data published in patent publication US8495760B2, “Atomic force microscope manipulation of living cells” (The Board of Trustees of the Leland Stanford Junior …, priority 2010, dated 2013).

How the values were obtained:
[1] = system: iPSC-CM; assay: AFM measurement of beat force and beat rate of solitary iPSC-derived cardiomyocytes; format: cell-based, human
Source text: (§1) In step 1441, the nanoscale tip of the microscale cantilever of the AFM is controlled to apply gentle pressure to a location on the cardiomyocyte. […] In experimental embodiments described in more detail below, one or more cardiomyocytes were gently contacted by the cantilever tip with 100 pN of force, producing a typical cellular indentation of about 200 nm to about 500 nm. In various embodiments the contact force falls in a range from about 0.05 to about 1 nN. Thus, in some embodiments, a method includes operating a controller for the microscale cantilever to cause the nanoscale tip to contact the cardiomyocyte at a predetermined pressure.
(§2) In step 1443, the indentation is measured and the vertical deflection feedback is turned off to allow the cantilever to move with the contractions of the beating cardiomyocyte. […]
(§3) In step 1445, the time history of vertical deflection of the cantilever at the location on the cell is measured and recorded. FIG. 15 is a graph 1500 that illustrates an example measured force time series when the AFM cantilever interacts with the living cardiomyocyte, according to an embodiment. […]
(§4) In step 1447, beat characteristics of the cell are determined. For example, the beat force, duration (width) and rate (frequency) are determined based on the time history of vertical deflection in trace 1510. […]

[2] = system: hESC-CM; assay: AFM measurement of beat force and beat rate of solitary hESC-derived cardiomyocytes; format: cell-based, human
Source text: as §1, §2, §3, §4

Structure (SMILES): NC[C@H](O)c1ccc(O)c(O)c1 [norepinephrine, 4-[(1R)-2-amino-1-hydroxyethyl]benzene-1,2-diol]
- beats faster than a cutoff of 1.7 beats/s ([1]; iPSC-CM after applying NE 100 μmol/L, 6% prior to treatment): 21%
- contraction force (beat force) after treatment ([1]; solitary iPSC-CM, norepinephrine 100 μmol/L, immediately following treatment, before treatment 0.18±0.06 nN, p<0.001): 0.48±0.23 nN
- effect on the beat rate ([2]; hESC-CM after treatment with norepinephrine 100 μmol/L): minimal effect
- contraction force (beat force) after treatment ([2]; solitary hESC-CM, norepinephrine 100 μmol/L, immediately following treatment, before treatment 0.097±0.019 nN, p<0.001): 0.31±0.03 nN
